Our source for the EC50 and solubility values is ChEMBL document CHEMBL3779828, “Discovery of the Aryl-phospho-indole IDX899, a Highly Potent Anti-HIV Non-nucleoside Reverse Transcriptase Inhibitor” (J Med Chem, 2016).

≈ marks a conversion by molar mass, not a printed value.

For series [1], the system named is Human immunodeficiency virus 1. The series can be described thus: Antiviral activity against HIV1 harboring reverse transcriptase Y181C mutant infected in primary MT4 cells assessed as inhibition of virus-induced cytopathogenicity after 4 days by MTS assay. It counts as functional, organism-based. The conditions noted are these: Human immunodeficiency virus 1, MT4, 96 h. (In general: Cytopathic effects are the visible damage that an infection or toxin causes in cultured cells.)

In series [2] the test system is Human immunodeficiency virus 1. The series can be described thus: Antiviral activity against HIV1 harboring reverse transcriptase Y181C/K103N double mutant infected in primary MT4 cells assessed as inhibition of virus-induced cytopathogenicity after 4 days by MTS assay. It counts as functional, organism-based. The conditions noted are these: Human immunodeficiency virus 1, MT4, 96 h.

Series [3] can be described thus: Antiviral activity against HIV1 BH10 harboring wild type reverse transcriptase infected in primary MT4 cells assessed as inhibition of virus-induced cytopathogenicity after 4 days by MTS assay. Type of series: functional, cell-based, Human immunodeficiency virus type 1 BH10. The conditions noted are these: Human immunodeficiency virus 1, MT4, 96 h.
Series [4] deals with Human immunodeficiency virus 1. The series can be described thus: Antiviral activity against HIV1 harboring reverse transcriptase K103N mutant infected in primary MT4 cells assessed as inhibition of virus-induced cytopathogenicity after 4 days by MTS assay. Type of series: functional, organism-based. The conditions noted are these: Human immunodeficiency virus 1, MT4, 96 h.

Series [5] is described as follows: Aqueous solubility of the compound at pH 7. Type of series: physicochemical. The conditions noted are these: aqueous medium.

Usually EC50 stands for the concentration at which the effect is half-maximal. On to `COc1cc(C)cc(P(=O)(OC)c2c(C(N)=O)[nH]c3ccc(Cl)cc23)c1` (centres undefined), for which the EC50 in series [1] came to 0.009 µM; in series [2], 0.663 µM; in series [3], 0.0004 µM; in series [4], 0.023 µM.

For `COP(=O)(c1ccc(C)c(C)c1)c1c(C(N)=O)[nH]c2ccc(Cl)cc12` (centres undefined), the EC50 in series [1] was determined as 0.0229 µM; in series [2], 0.792 µM; in series [3] it was 0.0002 µM; in series [4] it was 0.035 µM.

On to `COP(=O)(c1cc(F)cc(F)c1)c1c(C(N)=O)[nH]c2ccc(Cl)cc12` (centres undefined), for which the EC50 is 0.0065 µM in series [1], 0.642 µM in series [2], 0.0007 µM in series [3] and 0.0255 µM in series [4].

Consider `COP(=O)(c1cc(C(F)(F)F)cc(C(F)(F)F)c1)c1c(C(N)=O)[nH]c2ccc(Cl)cc12` (centres undefined), for which the EC50 in series [1] was 0.527 µM; in series [2] it was greater than 1 µM; in series [3], 0.0246 µM; in series [4], 0.947 µM.

`COP(=O)(c1cccc2ccccc12)c1c(C(N)=O)[nH]c2ccc(Cl)cc12` (centres undefined): the EC50 in series [1] is 0.357 µM; in series [2] it was greater than 1 µM; in series [3] it was 0.0175 µM; in series [4], 0.727 µM.

Take `COP(=O)(c1cc(C)cc(/C=C/C#N)c1)c1c(C(N)=O)[nH]c2ccc(Cl)cc12` (single isomer, unassigned; form 2): the EC50 in series [1] was 0.377 µM; in series [2], greater than 1.25 µM; in series [3] it was 0.19 µM; in series [4] it was 0.824 µM.

`COP(=O)(c1cc(C)cc(Br)c1)c1c(C(N)=O)[nH]c2ccc(Cl)cc12` (centres undefined): the EC50 turned out to be 0.006 µM in series [1], 0.368 µM in series [2], 0.003 µM in series [3] and 0.025 µM in series [4].

On to `COP(=O)(c1cccs1)c1c(C(N)=O)[nH]c2ccc(Cl)cc12` (centres undefined), for which the 50% effective concentration (EC50) was 0.0034 µM in series [1], greater than 1 µM in series [2], 0.0003 µM in series [3] and 0.0086 µM in series [4].

In the case of `COP(=O)(c1cc(Cl)cc(Cl)c1)c1c(C(N)=O)[nH]c2ccc(Cl)cc12` (centres undefined), the concentration for a half-maximal effect (EC50) in series [1] came out at 0.0017 µM; in series [2] it was 0.248 µM; in series [3], 0.0003 µM; in series [4], 0.0199 µM.

Take `COP(=O)(c1cc(C)cc(Cl)c1)c1c(C(N)=O)[nH]c2ccc(Cl)cc12` (centres undefined): the concentration giving a half-maximal response (EC50) in series [1] is 0.0056 µM; in series [2] it was 0.114 µM; in series [3], 0.0011 µM; in series [4], 0.0188 µM.

`COP(=O)(c1cc(C)cc(C#N)c1)c1c(C(N)=O)[nH]c2ccc(Cl)cc12` (centres undefined): the EC50 worked out at 0.0038 µM in series [1], 0.162 µM in series [2], 0.001 µM in series [3] and 0.0184 µM in series [4].

By solubility is commonly meant the concentration that dissolves in the medium under given conditions. The low end stands for little dissolved substance, the high end for much dissolved substance. For the molecule `COP(=O)(c1cc(C)cc(F)c1)c1c(C(N)=O)[nH]c2ccc(Cl)cc12` (centres undefined), the 50% effective concentration (EC50) in series [1] is 0.0034 µM; in series [2], 0.069 µM; in series [3], 0.0002 µM; in series [4] it was 0.0005 µM. In addition, in series [5], the solubility amounted to 1.7 µM (≈ 0.647 µg/mL).
